Reference: patent publication US20080242681A1, “N-4-(6-(Hetero)Aryl-Pyrimidin-4-Ylaminophenyl)-Benzenesulfonamides as Kinase Inhibitors” (Altana Pharma AG, priority 2004, published 2008)
pIC50: −log10 of the molar value. Counter-ions that a name gives are not always drawn.

How the values were obtained:
[1] = biological target: T1, Lck (Homo sapiens, UniProt P06239); assay: Lck (p56Lck) assay (SPA); type: biochemical; settings: human recombinant Lck, read-out: IC50, inhibition of Lck
T1 construct: purchased Upstate (Dundee, UK)
Experimental: The compounds of formula 1 are tested for their activity on different protein kinases and PKC isoforms using a scintillation proximity assay (SPA, Amersham International plc). ^33P-labeled peptides are captured onto streptavidin coated yttrium silicate SPA beads. β-particles, emitted from the captured ^33P-labeled substrate in close proximity to the bead are able to excite the scintillant, resulting in the generation of quantifiable light. The assay is performed in a 96-well polystyrene microtiterplate (1450-514, Isoplates, Wallac, Turku, Finland). The reaction mixture (50 μl) contains 10 μl of the test compound together with 10 μl of the relevant kinase, diluted in the relevant dilution buffer, 5 μl of 10 μM phorbol myristate acetate (PMA) in H2O, 5 μl of 1.6 mM phosphatidylserine (Sigma-Aldrich Chemie GmbH, Stein-heim, Germany) in 20 mM Tris/HCL buffer pH 7.4, 5 μl of 0.3% BSA in H2O, 5 μl of 30 μM relevant substrate and 10 μl of 5 μM ATP and 0.1 μCi of ^33P-ATP (Amersham, Freiburg, Germany) in 200 mM Tris/HCL pH 7.5 and 200 mM MgCl2. […] Thereafter the MTP is counted in a Microbeta Jet (Wallac). […]
Human recombinant Lck was obtained from Upstate (Dundee, UK) and is used in a scintillation proximity assay described in Section A.1. […] Thereafter the MTP is counted in a Microbeta Jet (Wallac). […] IC50 values are calculated from the graph by sigmoidal curve fitting. […]

[2] = biological target: T2, PKCβ1 (Homo sapiens, UniProt P05771); assay: Protein Kinase Cβ1 assay (SPA); type: biochemical; settings: human recombinant PKCβ1, SPA, biotinylated PKCα pseudosubstrate, 0.5 mM CaCl2; read-out: IC50, inhibition of PKC β1
T2 construct: purchased Panvera
Experimental: (§1) The compounds of formula 1 are tested for their activity on different protein kinases and PKC isoforms using a scintillation proximity assay (SPA, Amersham International plc). ^33P-labeled peptides are captured onto streptavidin coated yttrium silicate SPA beads. β-particles, emitted from the captured ^33P-labeled substrate in close proximity to the bead are able to excite the scintillant, resulting in the generation of quantifiable light. The assay is performed in a 96-well polystyrene microtiterplate (1450-514, Isoplates, Wallac, Turku, Finland). The reaction mixture (50 μl) contains 10 μl of the test compound together with 10 μl of the relevant kinase, diluted in the relevant dilution buffer, 5 μl of 10 μM phorbol myristate acetate (PMA) in H2O, 5 μl of 1.6 mM phosphatidylserine (Sigma-Aldrich Chemie GmbH, Stein-heim, Germany) in 20 mM Tris/HCL buffer pH 7.4, 5 μl of 0.3% BSA in H2O, 5 μl of 30 μM relevant substrate and 10 μl of 5 μM ATP and 0.1 μCi of ^33P-ATP (Amersham, Freiburg, Germany) in 200 mM Tris/HCL pH 7.5 and 200 mM MgCl2. Incubation is performed for 40 min at room temperature (RT) without shaking. Reaction is stopped by adding 150 μl of cold stop solution containing 10 mM ATP, 5 mM EGTA pH 7.5, 0.1% Triton X-100 and 0.2 mg streptavidin coated yttrium silicate SPA beads (Amersham, RPNQ 0012). The sealed plate is incubated for 60 min at RT. Thereafter the MTP is counted in a Microbeta Jet (Wallac). IC50 measurement is performed on a routine basis by incubation a serial dilution of inhibitor at concentrations ranging between 0.01 and 100 μM according to the method described above. Background values are the signals of the reaction mixture without addition of the relevant kinase and are subtracted from all values. 100% values are the signals of the reaction mixture without addition of inhibitors.
Dependent on the efficacy of the inhibitors In the various test systems, corresponding IC50 values are calculated from concentration-inhibition curves by nonlinear regression analysis using the program GraphPad Prism (GraphPad Software Inc., San Diego, Calif.).
Human recombinant PKCβ1 was obtained from Panvera and is used under the assay conditions as described above (Section A.1). The enzyme is diluted in PKC dilution buffer containing 1 mM Hepes pH 7.4, 0.5 mM DTT and 0.001% Triton X-100. The assay additionally contains 0.5 mM CaCl2. The kinase reaction is performed with the biotinylated PKCα pseudosubstrate solved in H2O. The examples 29, 45, 52, 128 and 139 inhibit PKC β1 in this assay with an IC50 between 2 and 40 μM.

[3] = system: responder T cells; assay: Mixed lymphocyte reaction (MLR), T cell proliferation; type: cell-based; settings: [3H]thymidine incorporation after 48 h, read-out: IC50, inhibition of MLR-mediated T-cell proliferation
Experimental: For MLR cultures 4×10^5 responder T cells are incubated in duplicates with 2×10^5 mitomycin C-treated allogeneic stimulator T cells in a total volume of 200 μl RPMI 1640 medium supplemented with 10% FCS, 2 mM L-glutamine, 100 U/ml penicillin and 100 μg/ml streptomycin (Gibco Life Technologies) in 96 well tissue culture plates (655180, flat bottom, Greiner). Cells are maintained at 37° C. in a humidified atmosphere of 5% CO2. After 48 h of growth, cells are pulsed with 1 μCi [^3H]thymidine and incorporation of [^3H]thymidine is measured with a Topcount radioactive counter (Packard). To investigate the effect of a test compound on MLR-mediated T cell proliferation six three-fold dilution steps in duplicates per test compound are performed (final DMSO concentration 0.1%). Low control values are the proliferation of responder cells alone; high controls are from mixed lymphocyte cells without any test samples. Low controls are subtracted from all values. The inhibition obtained in the presence of a test compound is calculated as percent Inhibition of the high control. The concentration of test compounds resulting in 50% inhibition (IC50) is determined from the dose-response curves. The examples 91, 128, 133 and 137 inhibit MLR-mediated T-cell proliferation in this assay with an IC50<1 μM.

[4] = biological target: T3, Rsk1 (Homo sapiens, UniProt Q15418); assay: Rsk1 KinaseProfiler assay (Upstate); type: biochemical; settings: human recombinant Rsk, externally tested (IC50Profiler, Upstate), 10 μM ATP; read-out: IC50, inhibition of Rsk1
T3 construct: purchased Upstate ltd, Dundee, UK (external KinaseProfiler service)
Experimental: To investigate the effect of a test compound on p90 ribosomal S6 kinase (Rsk) family, the compounds are externally tested in KinaseProfiler assay (Upstate ltd, Dundee, UK) described in product guide brochure. In brief, in a final reaction volume of 25 μl, 5-10 mU of human recombinant Rsk are incubated with 8 mM MOPS pH 7.0, 0.2 mM EDTA, 30 μM KKKNRTLSVA, 10 mM MgAcetate and 10 μM [γ-33P-ATP]. The reaction is initiated by addition of the MgATP mix. After incubation for 40 minutes at RT, the reaction is stopped by the addition of 5 μl of a 3% phosphoric acid solution. 10 μl of the reaction is then spotted onto P30 filtermat and washed three times for 5 minutes in 75 mM phosphoric acid and once in methanol prior to drying and scintillation counting. The IC50 value is estimated by preparing a 10 point curve using a ½ log dilution series (IC50Profiler, Upstate). The examples 129, 431 and 173 inhibit Rsk1 in this assay with an IC50<1 μM.

[5] = biological target: T4, PKCι (Homo sapiens, UniProt P41743); assay: Protein Kinase C ι assay (SPA); type: biochemical; settings: human recombinant PKCι from Sf21 insect cells, absence of PMA and phosphatidylserine, read-out: IC50, inhibition of PKC ι
T4 construct: made in house; host or cells: Sf21 insect cells
T4 sequence (P41743 1-596): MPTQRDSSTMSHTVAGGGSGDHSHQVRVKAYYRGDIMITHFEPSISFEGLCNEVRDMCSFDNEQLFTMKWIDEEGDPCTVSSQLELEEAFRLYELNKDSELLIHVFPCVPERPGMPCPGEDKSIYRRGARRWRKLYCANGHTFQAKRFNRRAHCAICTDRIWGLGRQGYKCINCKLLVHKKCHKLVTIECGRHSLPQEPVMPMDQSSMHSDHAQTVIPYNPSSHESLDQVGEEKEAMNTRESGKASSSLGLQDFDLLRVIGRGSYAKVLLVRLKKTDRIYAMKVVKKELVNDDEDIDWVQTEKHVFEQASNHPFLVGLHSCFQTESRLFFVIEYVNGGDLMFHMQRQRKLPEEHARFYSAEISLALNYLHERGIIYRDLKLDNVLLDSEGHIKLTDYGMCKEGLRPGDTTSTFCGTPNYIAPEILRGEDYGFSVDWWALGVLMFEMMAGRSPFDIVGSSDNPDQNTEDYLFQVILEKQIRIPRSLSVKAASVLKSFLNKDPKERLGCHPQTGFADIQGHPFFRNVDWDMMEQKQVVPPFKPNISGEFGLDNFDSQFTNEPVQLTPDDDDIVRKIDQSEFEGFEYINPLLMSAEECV
Experimental: as §1
Dependent on the efficacy of the inhibitors In the various test systems, corresponding IC50 values are calculated from concentration-inhibition curves by nonlinear regression analysis using the program GraphPad Prism (GraphPad Software Inc., San Diego, Calif.). […]

T3 sequence (Q15418 whole entry): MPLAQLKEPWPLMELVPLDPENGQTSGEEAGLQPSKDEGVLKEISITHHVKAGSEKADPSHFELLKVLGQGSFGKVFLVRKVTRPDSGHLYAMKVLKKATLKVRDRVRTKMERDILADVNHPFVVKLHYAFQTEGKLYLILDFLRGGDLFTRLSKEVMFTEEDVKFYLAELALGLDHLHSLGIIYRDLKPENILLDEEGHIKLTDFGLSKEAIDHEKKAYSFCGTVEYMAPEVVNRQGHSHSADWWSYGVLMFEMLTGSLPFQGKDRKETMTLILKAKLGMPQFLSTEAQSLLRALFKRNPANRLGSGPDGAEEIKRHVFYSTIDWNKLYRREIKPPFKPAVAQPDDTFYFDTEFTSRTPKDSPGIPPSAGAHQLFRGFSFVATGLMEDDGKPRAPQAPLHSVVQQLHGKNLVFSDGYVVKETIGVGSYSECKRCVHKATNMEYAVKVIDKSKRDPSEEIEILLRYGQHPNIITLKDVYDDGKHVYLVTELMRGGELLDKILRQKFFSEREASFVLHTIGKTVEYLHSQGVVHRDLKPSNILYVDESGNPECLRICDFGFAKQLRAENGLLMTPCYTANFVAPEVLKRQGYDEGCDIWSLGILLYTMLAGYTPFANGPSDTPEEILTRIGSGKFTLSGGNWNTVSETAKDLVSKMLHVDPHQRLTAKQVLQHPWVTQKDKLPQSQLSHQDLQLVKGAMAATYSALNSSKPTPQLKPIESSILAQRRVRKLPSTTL
T2 sequence (P05771 whole entry): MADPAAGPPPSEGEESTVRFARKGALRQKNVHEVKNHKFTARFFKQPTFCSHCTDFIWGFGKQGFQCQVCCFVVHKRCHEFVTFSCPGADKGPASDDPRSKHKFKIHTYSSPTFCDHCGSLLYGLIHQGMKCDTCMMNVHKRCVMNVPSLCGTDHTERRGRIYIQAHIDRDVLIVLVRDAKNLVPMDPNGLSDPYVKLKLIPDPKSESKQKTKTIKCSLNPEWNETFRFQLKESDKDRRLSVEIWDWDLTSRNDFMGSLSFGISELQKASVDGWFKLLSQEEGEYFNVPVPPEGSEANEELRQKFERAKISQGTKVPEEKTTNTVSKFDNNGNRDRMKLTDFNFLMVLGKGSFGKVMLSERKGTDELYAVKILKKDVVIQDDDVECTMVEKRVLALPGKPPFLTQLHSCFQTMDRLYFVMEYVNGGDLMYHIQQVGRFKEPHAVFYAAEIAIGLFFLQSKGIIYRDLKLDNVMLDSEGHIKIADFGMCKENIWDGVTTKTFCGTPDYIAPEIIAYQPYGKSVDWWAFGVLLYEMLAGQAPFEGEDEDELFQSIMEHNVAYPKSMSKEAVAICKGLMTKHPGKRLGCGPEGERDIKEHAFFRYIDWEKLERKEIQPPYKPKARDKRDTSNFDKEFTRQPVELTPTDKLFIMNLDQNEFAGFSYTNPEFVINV
T1 sequence (P06239 whole entry): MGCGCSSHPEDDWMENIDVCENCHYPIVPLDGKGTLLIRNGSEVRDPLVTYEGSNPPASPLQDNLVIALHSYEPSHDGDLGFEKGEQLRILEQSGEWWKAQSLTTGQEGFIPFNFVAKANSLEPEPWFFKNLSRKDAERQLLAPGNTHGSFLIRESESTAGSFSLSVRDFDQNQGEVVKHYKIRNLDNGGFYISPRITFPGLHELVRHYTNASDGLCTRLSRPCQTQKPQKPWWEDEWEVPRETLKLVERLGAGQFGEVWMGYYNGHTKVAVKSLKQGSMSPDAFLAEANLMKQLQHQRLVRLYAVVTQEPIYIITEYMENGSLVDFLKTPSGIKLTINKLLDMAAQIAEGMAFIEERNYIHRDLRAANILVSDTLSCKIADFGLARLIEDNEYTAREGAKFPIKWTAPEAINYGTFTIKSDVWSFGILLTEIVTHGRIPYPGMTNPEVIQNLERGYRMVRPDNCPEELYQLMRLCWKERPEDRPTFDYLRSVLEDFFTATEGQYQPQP

pIC50 [1]	pIC50 [2]	pIC50 [4]	pIC50 [5]	SMILES	pIC50 [3]
> 5.52	4.40 to 5.70	–	–	CN(C)CCCn1ccc2cc(-c3cc(Nc4ccc(NS(=O)(=O)c5c(F)cccc5F)cc4)ncn3)ccc21 [Example 128, N-(4-{6-[1-(3-Dimethylamino-propyl)-1H-indol-5-yl]-pyrimidin-4-ylamino}-phenyl)-2,6-difluoro-benzenesulfonamide]	> 6.00
–	–	> 6.00	–	CN(C)CCCn1ccc2cc(-c3cc(Nc4ccc(NS(=O)(=O)c5ccccc5F)cc4)ncn3)ccc21 [Example 129, N-(4-{6-[1-(3-Dimethylamino-propyl)-1H-indol-5-yl]-pyrimidin-4-ylamino}-phenyl)-2-fluorobenzenesulfonamide]	–
–	–	> 6.00	4.47 to 5.15	CCN(CC)CCCn1cc(-c2cc(Nc3ccc(NS(=O)(=O)c4c(F)cccc4F)cc3)ncn2)c2ccccc21 [Example 173, N-(4-{6-[1-(3-Diethylamino-propyl)-1H-indol-3-yl]-pyrimidin-4-ylamino}-phenyl)-2,6-difluoro-benzenesulfonamide formic acid salt]	–
